Source: patent US8828988B2 (Tetraphase Pharmaceuticals, Inc., priority 2009, dated 2014)
≈ marks a conversion by molar mass, not a printed value. Like-named read-outs stand apart in the source and are kept apart here.

Columns and labels:
[1] = test system: Escherichia coli EC155, tetracycline-resistant, tet(A); assay: MIC assay, EC155; type: cell-based
[2] = test system: Staphylococcus aureus SA161, HA-MRSA, tetracycline-resistant, tet(M); assay: MIC assay, SA161; type: cell-based
[3] = test system: Streptococcus pneumoniae SP106, ATCC 49619; assay: MIC assay, SP106; type: cell-based
[4] = test system: Staphylococcus aureus SA101, ATCC 29213, MSSA; assay: MIC assay, SA101; type: cell-based
[5] = test system: Staphylococcus aureus SA158, tetracycline-resistant tet(K); assay: MIC assay, SA158; type: cell-based
[6] = test system: Escherichia coli EC107, ATCC 25922; assay: MIC assay, EC107; type: cell-based
[7] = test system: Klebsiella pneumoniae KP153, tetracycline-resistant, tet(A), MDR, ESBL+; assay: MIC assay, KP153; type: cell-based
[8] = test system: Acinetobacter baumannii AB110, ATCC 19606; assay: MIC assay, AB110; type: cell-based
[9] = test system: Enterococcus faecalis EF159, tetracycline-resistant, tet(M); assay: MIC assay, EF159; type: cell-based
[10] = test system: Staphylococcus aureus SA100, ATCC 13709, MSSA, Smith strain; assay: MIC assay, SA100; type: cell-based
[11] = test system: Enterobacter cloacae EC108, ATCC 13047; assay: MIC assay, EC108; type: cell-based
[12] = test system: Pseudomonas aeruginosa PA111, ATCC 27853; assay: MIC assay, PA111; type: cell-based
[13] = test system: Streptococcus pneumoniae SP160, tetracycline-resistant, tet(M); assay: MIC assay, SP160; type: cell-based
[14] = test system: Klebsiella pneumoniae KP109, ATCC 13883; assay: MIC assay, KP109; type: cell-based
[15] = test system: Enterococcus faecalis EF103, ATCC 29212; assay: MIC assay, EF103; type: cell-based; settings: for MIC: Enterococcus faecalis
[16] = test system: E. coli DH10B(pBAD-tetM), expressing tet(M); assay: MIC against recombinant E. coli expressing tet(M); type: cell-based
Excerpt: (§1) Constructs were transformed into E. coli DH10B for expression. Recombinant strains were pre-induced under optimized conditions with L-arabinose prior to use as inocula in CLSI standardized MIC assays.

[17] = test system: E. coli DH10B(pBAD-tetK), expressing tet(K); assay: MIC against recombinant E. coli expressing tet(K); type: cell-based; settings: for MIC: Escherichia coli
Excerpt: as §1

[18] = test system: H. influenzae isolates (Eurofins-Medinet, recent clinical isolates); assay: MIC50 and MIC90 analysis (Example 22)
[19] = test system: S. pneumoniae clinical isolates; assay: MIC50, MIC90 and MIC range, panel of clinical isolates (Example 20); type: cell-based; settings: 19 isolates, in µg/mL
Description: (§2) The assays were run as follows.
(§3) Both values, as well as the MIC range (the lowest and highest MIC value observed for a collection of organisms), were determined for the isolates listed in Table 3.

[20] = test system: E. faecalis clinical isolates; assay: as above; type: cell-based; settings: 24 isolates, in µg/mL
Description: as §2, §3

[21] = test system: S. aureus clinical isolates; assay: as above; type: cell-based; settings: MRSA, 30 isolates; in µg/mL
Description: as §2, §3

[22] = test system: S. pneumoniae isolates (Eurofins-Medinet, recent clinical isolates); assay: MIC50 and MIC90 analysis (Example 22)
Description: Frozen bacterial strains were thawed and subcultured onto Mueller Hinton Broth (MHB) or other appropriate media (Streptococcus requires blood and Haemophilus requires hemin and NAD). Following incubation overnight, the strains were subcultured onto Mueller Hinton Agar and again incubated overnight. […] Isolated colonies were selected to prepare a starting inoculum equivalent to a 0.5 McFarland standard. […] Antibiotics (stored frozen, thawed and used within 3 hours of thawing) and compounds were further diluted to the desired working concentrations.
The assays were run as follows. Fifty μL of MHB was added to wells 2-12 of a 96-well plate. One hundred μL of appropriately diluted antibiotic or compound was added to well 1. Fifty μL of antibiotics or compound was removed from well 1 and added to well 2 and the contents of well 2 mixed by pipetting up and down five times. Fifty μL of the mixture in well 2 was removed and added to well 3 and mixed as above. Serial dilutions were continued in the same manner through well 12. Fifty μL was removed from well 12 so that all contained 50 μL. Fifty μL of the working inoculum was then added to all test wells. A growth control well was prepared by adding 50 μL of working inoculum and 50 μL of MHB to an empty well. The plates were then incubated at 37° C. overnight, removed from the incubator and each well was read on a plate reading mirror. The lowest concentration (MIC) of test compound that inhibited the growth of the bacteria was recorded.
MIC, MIC50 and MIC90 values were determined according to CLSI methodology. S. pneumoniae and H. influenzae isolates were obtained from Eurofins-Medinet and are recent clinical isolates. S. aureus strains were collected from various geographical sources.

[23] = test system: E. coli S30 extract system, coupled in vitro transcription/translation, firefly luciferase readout; assay: In vitro transcription/translation (TnT) assay; type: biochemical
[24] = ATCC13883, read-out: MIC KP109 13883
[25] = ATCC29212, read-out: MIC EF103 29212
[26] = ATCC49619, read-out: MIC SP106 49619
[27] = ATCC25922, read-out: MIC EC107 25922
[28] = ATCC19606, read-out: MIC AB110 19606
[29] = ATCC13047, read-out: MIC EC108 13047
[30] = ATCC27853, read-out: MIC PA111 27853

With CN(C)c1ccc(O)c2c1C[C@H]1C[C@H]3[C@H](N(C)C)C(O)=C(C(N)=O)C(=O)[C@@]3(O)C(O)=C1C2=O [Mino., Minocycline, reference compound] the MIC ([1]; numeric values of control compounds, read-out: MIC EC155 tetA) was 8 µg/mL (≈ 17.5 µM), the MIC ([2]; numeric values of control compounds, read-out: MIC SA161 MRSA, tetM) was 8 µg/mL (≈ 17.5 µM) and the MIC ([3]; ATCC49619, numeric values of control compounds, read-out: MIC SP106 49619) was < 0.015 µg/mL. For the same molecule, the MIC ([4]; numeric values of control compounds, read-out: MIC SA101 29213) was 0.06 µg/mL (≈ 0.131 µM), the MIC ([5]; numeric values of control compounds, read-out: MIC SA158 tetK) was 0.03 µg/mL (≈ 0.0656 µM) and the MIC ([6]; ATCC25922, numeric values of control compounds, read-out: MIC EC107 25922) was 0.5 µg/mL (≈ 1.09 µM). It also gave an MIC ([7]; numeric values of control compounds, read-out: MIC KP153 tetA) of 8 µg/mL (≈ 17.5 µM), an MIC ([8]; ATCC19606, numeric values of control compounds, read-out: MIC AB110 19606) of 0.06 µg/mL (≈ 0.131 µM) and an MIC ([9]; numeric values of control compounds, read-out: MIC EF159 tetM) of 16 µg/mL (≈ 35 µM). It also gave an MIC ([10]; numeric values of control compounds, read-out: MIC SA100 13709) of 0.06 µg/mL (≈ 0.131 µM), an MIC ([11]; ATCC13047, numeric values of control compounds, read-out: MIC EC108 13047) of 2 µg/mL (≈ 4.37 µM) and an MIC ([12]; ATCC27853, numeric values of control compounds, read-out: MIC PA111 27853) of 16 µg/mL (≈ 35 µM). For the same molecule, the MIC ([13]; numeric values of control compounds, read-out: MIC SP160 tetM) was 2 µg/mL (≈ 4.37 µM).
For C[C@H]1c2cccc(O)c2C(=O)C2=C(O)[C@]3(O)C(=O)C(C(N)=O)=C(O)[C@@H](N(C)C)[C@@H]3[C@@H](O)[C@@H]21 [Doxycycline, doxycycline, reference compound], the MIC ([1]; Table 8, read-out: MIC E. coli tetA) was 32 µg/mL (≈ 72 µM), the MIC ([1]; Table 9, read-out: MIC E. coli EC155 (tet)A) was 32 µg/mL (≈ 72 µM) and the MIC ([14]; ATCC13883, Table 9, read-out: MIC Klebsiella pneum ATCC 13883) was 2 µg/mL (≈ 4.5 µM). For the same molecule, the MIC ([15]; ATCC29212, Table 8, read-out: MIC E. faecalis ATCC 29212) was 4 µg/mL (≈ 9 µM), the “MIC E. faecalis ATCC 29212” value ([15]; Table 9) was 4 µg/mL (≈ 9 µM) and the MIC ([2]; Table 8, read-out: MIC S. aureus MRSA, tetM) was 8 µg/mL (≈ 18 µM). It also gave an MIC ([2]; Table 9, read-out: MIC MRSA (tet)M SA161) of 8 µg/mL (≈ 18 µM), an MIC ([3]; ATCC49619, Table 8, read-out: MIC S. pneumoniae ATCC 49619) of 0.06 µg/mL (≈ 0.135 µM) and an MIC ([3]; ATCC49619, Table 9, read-out: MIC S. pneum ATCC 49619) of 0.25 µg/mL (≈ 0.563 µM). The MIC ([16]; Escherichia coli, read-out: MIC, Uninduced) was 4 µg/mL, the “Ratio (TetM induced / Uninduced)” value ([16]; ratio of MICs) was 8 and the MIC ([4]; Table 8, read-out: MIC S. aureus ATCC 29213) was 0.13 µg/mL (≈ 0.293 µM). For the same molecule, the MIC ([4]; Table 9, read-out: MIC S. aureus ATCC 29213) was 0.5 µg/mL (≈ 1.13 µM), the MIC ([17]; read-out: MIC, TetK Induced) was 8 µg/mL and the MIC ([17]; read-out: MIC, Uninduced) was 2 µg/mL. For the same molecule, the “MIC ratio, TetK induced to uninduced” value ([17]; ratio of TetK induced to uninduced MIC) was 4, the “MIC in the presence of tet(K) expression, fold higher than when tet(K) was not expressed” value ([17]; tet(K) expressed vs not expressed) was 4 fold and the MIC ([5]; Table 8, read-out: MIC S. aureus tetK) was 2 µg/mL (≈ 4.5 µM). For the same molecule, the MIC ([5]; Table 9, read-out: MIC S. aureus SA158 (tet)K) was 2 µg/mL (≈ 4.5 µM), the MIC Range ([18]; H. influenzae (n = 12)) was 0.5 to 4 µg/mL and the MIC50 ([18]; Haemophilus influenzae) was 1 µg/mL (≈ 2.25 µM). The MIC90 ([18]; Haemophilus influenzae) was 4 µg/mL (≈ 9 µM), the MIC ([6]; ATCC25922, Table 8, read-out: MIC E. coli ATCC 25922) was 1 µg/mL (≈ 2.25 µM) and the MIC ([6]; ATCC25922, Table 9, read-out: MIC E. coli ATCC 25922) was 1 µg/mL (≈ 2.25 µM). It also gave an MIC ([7]; Table 9, read-out: MIC Klebsiella pneum KP153 (tet)A) of 32 µg/mL (≈ 72 µM), an MIC ([8]; ATCC19606, Table 9, read-out: MIC A.baum AB110) of 2 µg/mL (≈ 4.5 µM) and an MIC ([9]; Table 8, read-out: MIC E. faecalis tetM) of 4 µg/mL (≈ 9 µM). For the same molecule, the MIC ([9]; Table 9, read-out: MIC E. faecalis EF159 (tet)M) was 8 µg/mL (≈ 18 µM), the MIC ([10]; Table 9, read-out: MIC S. aureus ATCC 13709) was 0.13 µg/mL (≈ 0.293 µM) and the “MIC Range” value [19] was “<=0.016-16”. The “MIC Range” value [20] was 0.063-16, the “MIC Range” value [21] was 0.063-8 and the MIC ([11]; ATCC13047, Table 9, read-out: MIC Enterobacter cloaceae ATCC 13047) was 4 µg/mL (≈ 9 µM). For the same molecule, the MIC ([12]; ATCC27853, Table 9, read-out: MIC P. aeruginosa ATCC 27853) was > 32 µg/mL, the MIC ([13]; Table 8, read-out: MIC S. pneumoniae tetM) was 4 µg/mL (≈ 9 µM) and the MIC ([13]; Table 9, read-out: MIC S. pneum SP160 (tet)M) was 8 µg/mL (≈ 18 µM). The MIC Range ([22]; S. pneumoniae (n = 20)) was “≦0.016-16 μg/ml”, the MIC50 ([22]; Streptococcus pneumoniae) was 8 µg/mL (≈ 18 µM) and the MIC90 ([22]; Streptococcus pneumoniae) was 8 µg/mL (≈ 18 µM).
CN(C)c1cc(NC(=O)CNC(C)(C)C)c(O)c2c1C[C@H]1C[C@H]3[C@H](N(C)C)C(O)=C(C(N)=O)C(=O)[C@@]3(O)C(O)=C1C2=O [Tige., Tigecycline, reference compound] showed an MIC ([1]; read-out: MIC EC155 tetA) of 0.5 µg/mL (≈ 0.854 µM), an MIC [14, 24] of 0.125 µg/mL (≈ 0.213 µM) and an MIC [15, 25] of 0.03 µg/mL (≈ 0.0512 µM). For the same molecule, the MIC ([2]; read-out: MIC SA161 MRSA, tetM) was 0.125 µg/mL (≈ 0.213 µM), the MIC [3, 26] was 0.0156 µg/mL (≈ 0.0266 µM) and the “TnT IC50” value [23] was 0.3 µg/mL. For the same molecule, the MIC ([4]; read-out: MIC SA101 29213) was 0.06 µg/mL (≈ 0.102 µM), the MIC ([5]; read-out: MIC SA158 tetK) was 0.06 µg/mL (≈ 0.102 µM) and the MIC [6, 27] was 0.03 µg/mL (≈ 0.0512 µM). For the same molecule, the MIC ([7]; read-out: MIC KP153 tetA) was 1 µg/mL (≈ 1.71 µM), the MIC [8, 28] was 0.25 µg/mL (≈ 0.427 µM) and the MIC ([9]; read-out: MIC EF159 tetM) was 0.06 µg/mL (≈ 0.102 µM). The MIC ([10]; read-out: MIC SA100 13709) was 0.06 µg/mL (≈ 0.102 µM), the MIC [11, 29] was 0.25 µg/mL (≈ 0.427 µM) and the MIC [12, 30] was 8 µg/mL (≈ 13.7 µM). For the same molecule, the MIC ([13]; read-out: MIC SP160 tetM) was 0.0156 µg/mL (≈ 0.0266 µM).
CN(C)[C@@H]1C(O)=C(C(N)=O)C(=O)[C@@]2(O)C(O)=C3C(=O)c4c(O)cccc4C[C@H]3C[C@@H]12 [San., Sancycline, reference compound] was tested, and the MIC ([1]; read-out: MIC EC155 tetA) was 32 µg/mL (≈ 77.2 µM), the MIC [14, 24] was 8 µg/mL (≈ 19.3 µM) and the MIC [15, 25] was 8 µg/mL (≈ 19.3 µM). It also gave an MIC [3, 26] of 0.25 µg/mL (≈ 0.603 µM), an MIC ([4]; read-out: MIC SA101 29213) of 0.5 µg/mL (≈ 1.21 µM) and an MIC ([5]; read-out: MIC SA158 tetK) of 4 µg/mL (≈ 9.65 µM). It also gave an MIC [6, 27] of 8 µg/mL (≈ 19.3 µM), an MIC ([7]; read-out: MIC KP153 tetA) of 32 µg/mL (≈ 77.2 µM) and an MIC [8, 28] of 0.25 µg/mL (≈ 0.603 µM). For the same molecule, the MIC ([9]; read-out: MIC EF159 tetM) was 8 µg/mL (≈ 19.3 µM), the MIC ([10]; read-out: MIC SA100 13709) was 1 µg/mL (≈ 2.41 µM) and the MIC [11, 29] was 8 µg/mL (≈ 19.3 µM). The MIC [12, 30] was > 32 µg/mL and the MIC ([13]; read-out: MIC SP160 tetM) was 8 µg/mL (≈ 19.3 µM).
